Reference: patent US5786165A, “Herbicide test method” (Agrevo UK Limited, priority 1994, dated 1998)

Assays:
[1] = test system: Pea seedlings; assay: In planta metabolism of carbocyclic coformycin; assay type: in vivo; conditions: 10 μM [3H] compound via the transpiration stream; 4 hours incubation
Method: Pea seedlings were grown as described in Test Example 2, harvested as described in Test Example 3 and then supplied with 10 μM (400 Ci mol^-1) [^3 H] carbocyclic coformycin via the transpiration stream. After incubation periods, pairs of seedlings were rapidly frozen in liquid nitrogen, ground to a fine powder and extracted in 2 ml ice cold 0.4M HClO4. The extracts were processed for HPLC analysis as described in Test Example 2 above except that the final sample was resuspended in 0.5 ml water instead of 10 mM HCl. [^3 H] carbocyclic coformycin and [^3 H] carbocyclic coformycin 5'-phosphate were separated using cation exchange chromatography with a Partisil (Registered Trade Mark) SCX column (8.0 cm×0.46 cm), 0.05M NH4 H2 PO4, pH 2.6; flow rate=2 ml/minute.

[2] = target: T1, calf intestinal mucosa adenosine deaminase (Bos taurus, UniProt P56658); assay: Mammalian adenosine deaminase inhibition assay; assay type: biochemical
T1 construct: calf intestinal mucosa adenosine deaminase; purchased Sigma Chemical Company Limited; host or cells: calf intestinal mucosa
Method: Mammalian Adenosine Deaminase Inhibition Assay
A suitable source of enzyme is calf intestinal mucosa adenosine deaminase supplied by the Sigma Chemical Company Limited. The assay employed follows the protocol provided by the supplier and measures a decrease in absorption at 265 nm as the substrate adenosine is utilized. A 10 minute preincubation of enzyme and inhibitor prior to addition of the substrate was employed.

[3] = test system: AMP deaminase; assay: Extractable levels of AMP deaminase in treated pea seedlings; assay type: in vivo
Method: Pea seedlings were excised near soil level, the stems quickly washed with distilled water and then stood upright in a […] containing 2 ml of compound solution or water (control). A section (approx 2 mm) was cut from the base of the stem while it was immersed to prevent air locks from forming in the xylem. The seedlings were incubated in the light at room temperature (approx 20° C.) in a moving air stream. At intervals, individual seedlings were extracted and the levels of AMP deaminase determined by extraction in 2 volumes ice cold citrate buffer (0.1M, pH 7), 0.5 mM dithiothreitol using a pestle and mortar. The homogenate was passed through 6 layers of muslin and loaded onto a sephadex gel filtration column (1.5 cm×8 cm) which had previously been equilibrated with 30 mM citrate (pH 7.1), 50 mM KCl and 0.5% (w/v) BSA (Assay buffer). The protein was eluted using the assay buffer and used directly for the enzyme assay. The assay is based on the release of ammonia (McCullough (1967), Clinica Chimica Acta, 17, 297) and contained in a total volume of 0.5 ml 60 mM citrate buffer (pH 7.1 with 5M NaOH) 100 mM KCl, 0.1% (w/v) BSA and 5 mM AMP. The reaction was started by the addition of 50 μl extract. […] Following incubation for 60 minutes at 55° C., the absorbance of the solutions at 625 nm was determined.

[4] = test system: extractable ATP levels in pea seedlings; assay: Measurement of extractable ATP levels; assay type: in vivo, Peas
Method: Peas were grown as described in Test Example 1 and exposed to carbocyclic coformycin via the transpiration stream as outlined in Test Example 3. Individual seedlings were rapidly frozen in liquid nitrogen. The frozen tissue was ground to a fine powder using a pestle and mortar then 1 ml ice cold 0.4M HClO4 was added. The frozen acid was ground to a fine powder tissue, the mixture allowed to thaw and then incubated on ice for 15 minutes. The extract was centrifuged (4,000 rpm, 5 minutes).
ATP measurements were made using the luciferase assay and a LUMAC Biocounter M2500 (6370 AC Landgraaf, The Netherlands). Samples were diluted 1:10,000 in water and 100 μl was assayed according to the manufacturer's instructions.

[5] = test system: plant AMP deaminase; assay: Plant AMP deaminase inhibition assay; assay type: biochemical, Pea seedlings; conditions: for IC50: 10 minute preincubation, substrate concentration 640 μM, read-out: 50% inhibition of AMP deaminase activity
Method: Pea seedlings were excised near soil level, the stems quickly washed with distilled water and then stood upright in a […] containing 2 ml of compound solution or water (control). A section (approx 2 mm) was cut from the base of the stem while it was immersed to prevent air locks from forming in the xylem. The seedlings were incubated in the light at room temperature (approx 20° C.) in a moving air stream. At intervals, individual seedlings were extracted and the levels of AMP deaminase determined by extraction in 2 volumes ice cold citrate buffer (0.1M, pH 7), 0.5 mM dithiothreitol using a pestle and mortar. The homogenate was passed through 6 layers of muslin and loaded onto a sephadex gel filtration column (1.5 cm×8 cm) which had previously been equilibrated with 30 mM citrate (pH 7.1), 50 mM KCl and 0.5% (w/v) BSA (Assay buffer). The protein was eluted using the assay buffer and used directly for the enzyme assay. The assay is based on the release of ammonia (McCullough (1967), Clinica Chimica Acta, 17, 297) and contained in a total volume of 0.5 ml 60 mM citrate buffer (pH 7.1 with 5M NaOH) 100 mM KCl, 0.1% (w/v) BSA and 5 mM AMP. The reaction was started by the addition of 50 μl extract. At 15 minute intervals from 0 to 60 minutes, the reaction was stopped by the addition of 420 μl reagent 1 (0.1M phenol, 0.17 mM sodium nitroprusside) immediately followed by 275 μl reagent 2 (0.125M NaOH, 0.38M Na2 HPO4 and 5 ml HOCl in a total volume of 500 ml). Following incubation for 60 minutes at 55° C., the absorbance of the solutions at 625 nm was determined.
Pea seedlings were grown as described in Test Example 2. The seedlings were harvested close to soil level and homogenized in 2 volumes of ice cold phosphate buffer (pH 7.5) containing 0.1 mM dithiothreitol and 0.4M sucrose using a Waring blender (1 minute, top speed). All of the following operations were carried out at 4° C. The homogenate was filtered through 6 layers of muslin and centrifuged at 100,000 g for 20 minutes to remove cell debris. To the resulting supernatant was added 40% (w/v) ammonium sulphate while stirring constantly. The precipitate was collected by centrifugation (12,000 g, 15 minutes) and dissolved in 30 ml phosphate buffer (pH 7.5), 0.1 mM dithiothreitol then dialyzed overnight against 2 l of the same buffer. Insolubles formed during the overnight dialysis were removed by centrifugation (7,000 g, 10 minutes). The supernatant was applied to a phospho-cellulose column (1.5×8 cm) which had been pre-equilibrated with 0.1M phosphate buffer (pH 7.5). After loading, the column was washed with 14 ml phosphate buffer (0.1M, pH 7.5) and the enzyme eluted with 0.6M phosphate buffer (pH 7.5). Activity was determined using the ammonia release assay described in Test Example 3 above.

[6] = test system: crude, desalted homogenates from pea seedlings; assay: Adenylate metabolism pathway in a crude plant homogenate; assay type: in vitro ADME, Peas (Pisum sativum L var Onward); conditions: without ATP, 10 minutes at 25° C.
Method: Peas (Pisum sativum L var Onward) were grown in soil for 10 days at 25° C. with a 16 hour/8 hour light/dark cycle. The seedlings were harvested close to soil level and a crude homogenate of was prepared by homogenization in 2 volumes of ice cold buffer containing tris-HCl (0.1M, pH 7.4 with 5M NaOH), 0.1 mM dithiothreitol and 0.4M sucrose using a Waring blender (1 minute, top speed). The homogenate was passed through 6 layers of muslin and 2.5 ml desalted on a sephadex (Registered Trade Mark) PD10 column (1.5 cm×8 cm) which had been pre-equilibrated with the homogenization buffer. Protein was eluted using the same buffer. The assay contained, in a total volume of 250 μl, 50 mM Tris-HCl (pH 6.5), 50 mM KCl, 0.05% (w/v) BSA and […] protein. ATP (5 mM) was also included where indicated. The assay was started by the addition of [^14 C] adenosine (500 μM, 0.2 μCi). After incubation at 25° C. for 10 minutes, the reaction was stopped by the addition of 0.25 ml ice cold HClO4 (0.4M). Precipitated protein was removed by centrifugation (13,000 g, 2 minutes) and 0.4 ml of the resulting supernatant applied to phenylsilane bonded silica gel columns (500 mg) which had been previously washed with 2 volumes of methanol and then 2 ml 0.4M HClO4. Samples were eluted with 4 ml 0.4M HClO4. The pH of the eluate was adjusted on ice to between 5.5 and 7.0 with 5M KOH. The neutralised extract was centrifuged (13,000 g, 2 minutes) and evaporated to dryness in a Gyrovap (Registered Trade Mark). The sample was then re-dissolved in 0.5 ml 10 mM HCl and centrifuged (13,000 g, 2 minutes) prior to HPLC analysis. The products were analysed using reverse phase chromatography with a spherisorb (Registered Trade Mark) column (25 cm×0.46 cm), solvent 1: 95:5 10 mM KH2 PO4 : methanol; solvent 2: 88:12 10 mM KH2 PO4 : methanol, pH 5.3, step change at 6 minutes, Flow rate: 1 ml/minute.

T1 sequence (P56658 whole entry): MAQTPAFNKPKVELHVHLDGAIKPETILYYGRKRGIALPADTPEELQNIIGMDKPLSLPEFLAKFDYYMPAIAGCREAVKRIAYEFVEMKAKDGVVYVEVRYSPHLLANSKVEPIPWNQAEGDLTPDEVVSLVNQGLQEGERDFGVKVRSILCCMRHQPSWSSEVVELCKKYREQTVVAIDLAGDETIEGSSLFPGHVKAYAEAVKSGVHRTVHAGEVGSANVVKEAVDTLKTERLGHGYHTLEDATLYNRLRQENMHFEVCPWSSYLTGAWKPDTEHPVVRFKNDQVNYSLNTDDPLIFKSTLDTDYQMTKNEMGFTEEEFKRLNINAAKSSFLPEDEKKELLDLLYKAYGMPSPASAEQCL

SMILES	major metabolite in planta [1]	inhibition of mammalian adenosine deaminase (in words) [2]	IC50 ([2]; 10 minute preincubation, substrate concentration 60 μM, read-out: 50% inhibition of adenosine deaminase)	extractable levels of AMP deaminase (in words) ([3]; applied to pea seedlings via the transpiration stream)	extractable levels of AMP deaminase, % of the control levels ([3]; treatment for 1 hour via the transpiration stream, control 19 μmols ammonia release per gram fresh weight per minute)	ATP levels relative to the control levels ([4]; 100 μM via the transpiration stream, 4 hours treatment, control 333 nmols ATP per gram fresh weight)	rise in extractable levels of ATP (in words) ([4]; in vivo)	inhibition of plant AMP deaminase (in words) [5]	IC50 [5]	% of radiolabel as ADP [6]	% of radiolabel as AMP [6]	% of radiolabel as ATP [6]	% of radiolabel as IMP [6]	% of radiolabel as inosine [6]	% of radiolabel as adenosine ([6]; 500 µM)
OC[C@H]1C[C@@H](n2cnc3c2N=CNC[C@H]3O)[C@H](O)[C@@H]1O [carbocyclic coformycin]	co-chromatographed with authentic carbocyclic coformycin 5'-phosphate	potent inhibitor	25 nM	rapid decrease	20-30%	approximately twice	remarkable rise	relatively poor inhibitor	120 µM						
Nc1ncnc2c1ncn2[C@@H]1O[C@H](CO)[C@@H](O)[C@H]1O [[^14 C adenosine, adenosine]										0%	0%	0%	0%	0%	100%
O=P(O)(O)OC[C@H]1C[C@@H](n2cnc3c2N=CNC[C@H]3O)[C@H](O)[C@@H]1O [carbocyclic coformycin 5'-phosphate]								potent inhibitor	0.02 µM						
